From PubChem BioAssay (NCI)
Several values for one entry are separate records, joined by “and”; a condition that tells them apart may be missing. Equal values may be shown once.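 All cell lines were grown in 96-well plates and treated with compound for 48 hours. The concentration for 50% growth inhibition is given as GI50. TGI marks complete inhibition of growth.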

Each compound was assayed on LOX IMVI melanoma (assay: DTP human tumour cell line panel, 48 h).

Row | Structure (SMILES) | GI50 | TGI
1 | O=C(Nc1cccc(C(F)(F)F)c1)Nc1cccc(C(F)(F)F)c1 | 1 µM | 2.28 µM
2 | CC(C)(C)[Si](C)(C)OC1[C@@H](O[Si](C)(C)C(C)(C)C)[C@@H](CNC(=O)NC(=O)C(F)(F)F)O[C@H]1n1cnc2c(NC(=O)Nc3ccccc3)ncnc21 (some centres undefined) | 6.12 µM | 12.3 µM
3 | CCOC(=O)n1cc(C2=C(c3ccc(OC)c(OC)c3)COC2=O)c2ccccc21 | 0.0623 µM | > 100 µM
4 | CC(=C(c1ccc(OCCN2CCCCC2)cc1)c1ccc(OCCN2CCCCC2)cc1)c1ccc(Cl)cc1 | 0.406 µM | 0.754 µM
5 | C=C(C)C(=O)O[C@@H]1C[C@@]2(C)O[C@@H]2C[C@H](O)/C(C)=C/[C@H]2OC(=O)C(=C)[C@@H]21 | – | > 100 µM
6 | C=CC(=O)Nc1cc(Nc2nccc(-c3cn(C)c4ccccc34)n2)c(OC)cc1N(C)CCN(C)C | 1.75 µM and 1.41 µM | 3.55 µM and 2.86 µM
7 | CC(=O)OC1(C)N=NC2(CCCCC2)O1 (centres undefined) | – | > 100 µM
8 | Cc1ccc(-c2nc(N3CCNCC3)c3oc(-c4ccc(C)cc4)nc3n2)cc1 | 1.88 µM | 3.46 µM
9 | [O-][Cl+3]([O-])([O-])[O-].[O]=[Ru]=[O].c1ccc(-c2ccccn2)nc1.c1ccc(-c2ccccn2)nc1 | 56.8 µM | > 100 µM
10 | C=C1C(=O)O[C@H]2[C@H]1CC/C(CNC(=O)c1cc3ccccc3[nH]1)=C\CC[C@@]1(C)O[C@@H]21 | 0.58 µM | 1.99 µM
11 | Cc1cc2c(cc1C)[n+](=O)c(C(=O)c1ccccc1)c(C(F)F)n2[O-] | 10.3 µM | > 100 µM
12 | COc1cc2c(cc1OC)C(Cl)C(c1ccc(F)cc1)=C2Cl (centres undefined) | – | 27.7 µM
13 | CCOC(=O)C1Sc2ccccc2N=C1C (centres undefined) | – | > 100 µM

What follows are compounds tested on KM12 colon (assay: DTP human tumour cell line panel, 48 h).

Row | Structure (SMILES) | TGI | GI50
14 | C[C@@]1(O)CC[C@]2(C)C3CCCC3[C@H]12 (some centres undefined) | > 100 µM | –
15 | CC[C@@H](c1ccc(O)c(O)c1)[C@@H](CC)c1ccc(O)c(O)c1 | 35.1 µM | 18.5 µM
16 | O=C1OCC2=C1C(c1cccc(Br)c1)c1cc3c(cc1N2CCO)OCCO3 (centres undefined) | 2.31 µM | 0.0442 µM
17 | COc1cc(-c2nn(-c3cccc(NC(=O)c4ccccc4)c3)cc2-c2ccncc2)ccc1Cl | 96.9 µM | 0.467 µM
18 | Cc1cc(Nc2ccc(C)c(Cl)c2)n2nc(C(F)(F)F)nc2n1 | > 100 µM | 27.2 µM
19 | COc1ccc(Cn2c(Br)c3c(c2Br)-c2nc(N)sc2CC3)cc1 | 20.6 µM | 3.47 µM
20 | CC(=O)[O-].CC(=O)[O-].O=C(N/N=C/c1cc(Cl)cc(Cl)c1O)c1ccncc1.[Cu+2] | > 100 µM | –
21 | O=C1CSC(=S)N1/N=C/c1ccc(Cl)c([N+](=O)[O-])c1 | > 100 µM | –
22 | O=C(Nc1nc(=S)[nH][nH]1)C(=O)C(C(=O)c1ccc2ccccc2c1)C1OC(=O)c2ccccc21 (centres undefined) | > 100 µM | –
23 | CCCCCCCCCCSC(=N)N (tested in a mixture with another compound) | 4.12 µM | 1.97 µM
24 | CCOc1ccc(NC2=CC(=O)C(=O)c3ccccc32)cc1 | 12.2 µM | –
25 | Cc1nc(-c2nc(C)c(C(=O)NNC(=O)C[n+]3ccccc3)s2)sc1C(=O)NNC(=O)C[n+]1ccccc1 | > 100 µM | –
26 | O=C1c2ccccc2C(=O)c2c(/C=C\N3CCCCC3)ccnc21 | 18 µM | –
27 | C=C1C[C@H](O)[C@H](Br)C(C)(C)[C@@]12CCC(C)=C(Cl)C2 | 2.11 µM | 0.311 µM
28 | Cc1ccc(S(=O)(=O)N2CCC2c2ccccc2)cc1 (centres undefined) | > 100 µM | –
29 | c1ccc(-c2n(Cc3ccc4ccccc4n3)cc[n+]2Cc2ccc3ccccc3c2)cc1 | 2.42 µM | 0.823 µM
30 | O=C(Nc1cccc(C(F)(F)F)c1)Nc1cccc(C(F)(F)F)c1 | 3.19 µM | 0.444 µM
31 | CC(C)(C)[Si](C)(C)OC1[C@@H](O[Si](C)(C)C(C)(C)C)[C@@H](CNC(=O)NC(=O)C(F)(F)F)O[C@H]1n1cnc2c(NC(=O)Nc3ccccc3)ncnc21 (some centres undefined) | 11.4 µM | 4.02 µM
32 | CCOC(=O)n1cc(C2=C(c3ccc(OC)c(OC)c3)COC2=O)c2ccccc21 | 14.1 µM | 0.0441 µM
33 | CC(=C(c1ccc(OCCN2CCCCC2)cc1)c1ccc(OCCN2CCCCC2)cc1)c1ccc(Cl)cc1 | 0.887 µM | 0.454 µM
34 | C=C(C)C(=O)O[C@@H]1C[C@@]2(C)O[C@@H]2C[C@H](O)/C(C)=C/[C@H]2OC(=O)C(=C)[C@@H]21 | > 100 µM | –
35 | C=CC(=O)Nc1cc(Nc2nccc(-c3cn(C)c4ccccc34)n2)c(OC)cc1N(C)CCN(C)C | 5.49 µM and 5.41 µM | 2.31 µM and 2.12 µM
36 | CC(=O)OC1(C)N=NC2(CCCCC2)O1 (centres undefined) | > 100 µM | –
37 | Cc1ccc(-c2nc(N3CCNCC3)c3oc(-c4ccc(C)cc4)nc3n2)cc1 | 3.2 µM | 1.66 µM
38 | [O-][Cl+3]([O-])([O-])[O-].[O]=[Ru]=[O].c1ccc(-c2ccccn2)nc1.c1ccc(-c2ccccn2)nc1 | > 100 µM | > 100 µM
39 | C=C1C(=O)O[C@H]2[C@H]1CC/C(CNC(=O)c1cc3ccccc3[nH]1)=C\CC[C@@]1(C)O[C@@H]21 | 5 µM | 2.08 µM
40 | Cc1cc2c(cc1C)[n+](=O)c(C(=O)c1ccccc1)c(C(F)F)n2[O-] | > 100 µM | 20.5 µM
41 | COc1cc2c(cc1OC)C(Cl)C(c1ccc(F)cc1)=C2Cl (centres undefined) | 32.3 µM | –
42 | CCOC(=O)C1Sc2ccccc2N=C1C (centres undefined) | > 100 µM | –

These compounds were tested on 786-0 renal (assay: DTP human tumour cell line panel, 48 h).

Row | Structure (SMILES) | TGI | GI50
43 | C[C@@]1(O)CC[C@]2(C)C3CCCC3[C@H]12 (some centres undefined) | > 100 µM | –
44 | CC[C@@H](c1ccc(O)c(O)c1)[C@@H](CC)c1ccc(O)c(O)c1 | 38.2 µM | 20.4 µM
45 | O=C1OCC2=C1C(c1cccc(Br)c1)c1cc3c(cc1N2CCO)OCCO3 (centres undefined) | 3.66 µM | 0.0695 µM
46 | COc1cc(-c2nn(-c3cccc(NC(=O)c4ccccc4)c3)cc2-c2ccncc2)ccc1Cl | > 100 µM | 1.1 µM
47 | Cc1cc(Nc2ccc(C)c(Cl)c2)n2nc(C(F)(F)F)nc2n1 | 40 µM | 18.8 µM
48 | COc1ccc(Cn2c(Br)c3c(c2Br)-c2nc(N)sc2CC3)cc1 | 28.6 µM | 5.02 µM
49 | CC(=O)[O-].CC(=O)[O-].O=C(N/N=C/c1cc(Cl)cc(Cl)c1O)c1ccncc1.[Cu+2] | > 100 µM | –
50 | O=C1CSC(=S)N1/N=C/c1ccc(Cl)c([N+](=O)[O-])c1 | > 100 µM | –
51 | O=C(Nc1nc(=S)[nH][nH]1)C(=O)C(C(=O)c1ccc2ccccc2c1)C1OC(=O)c2ccccc21 (centres undefined) | 49.5 µM | –
52 | CCCCCCCCCCSC(=N)N (tested in a mixture with another compound) | 4.54 µM | 1.91 µM
53 | CCOc1ccc(NC2=CC(=O)C(=O)c3ccccc32)cc1 | 13.7 µM | –
54 | Cc1nc(-c2nc(C)c(C(=O)NNC(=O)C[n+]3ccccc3)s2)sc1C(=O)NNC(=O)C[n+]1ccccc1 | > 100 µM | –
55 | O=C1c2ccccc2C(=O)c2c(/C=C\N3CCCCC3)ccnc21 | 31.3 µM | –
56 | C=C1C[C@H](O)[C@H](Br)C(C)(C)[C@@]12CCC(C)=C(Cl)C2 | 11.7 µM | 0.57 µM
57 | Cc1ccc(S(=O)(=O)N2CCC2c2ccccc2)cc1 (centres undefined) | > 100 µM | –
58 | c1ccc(-c2n(Cc3ccc4ccccc4n3)cc[n+]2Cc2ccc3ccccc3c2)cc1 | 6.12 µM | 2.24 µM
59 | O=C(Nc1cccc(C(F)(F)F)c1)Nc1cccc(C(F)(F)F)c1 | 4.14 µM | 1.56 µM
60 | CC(C)(C)[Si](C)(C)OC1[C@@H](O[Si](C)(C)C(C)(C)C)[C@@H](CNC(=O)NC(=O)C(F)(F)F)O[C@H]1n1cnc2c(NC(=O)Nc3ccccc3)ncnc21 (some centres undefined) | 13.4 µM | 6.58 µM
61 | CCOC(=O)n1cc(C2=C(c3ccc(OC)c(OC)c3)COC2=O)c2ccccc21 | > 100 µM | 0.0625 µM
62 | CC(=C(c1ccc(OCCN2CCCCC2)cc1)c1ccc(OCCN2CCCCC2)cc1)c1ccc(Cl)cc1 | 0.805 µM | 0.419 µM
63 | C=C(C)C(=O)O[C@@H]1C[C@@]2(C)O[C@@H]2C[C@H](O)/C(C)=C/[C@H]2OC(=O)C(=C)[C@@H]21 | > 100 µM | –
64 | C=CC(=O)Nc1cc(Nc2nccc(-c3cn(C)c4ccccc34)n2)c(OC)cc1N(C)CCN(C)C | 2.94 µM and 2.9 µM | 1.4 µM and 1.38 µM
65 | CC(=O)OC1(C)N=NC2(CCCCC2)O1 (centres undefined) | > 100 µM | –
66 | Cc1ccc(-c2nc(N3CCNCC3)c3oc(-c4ccc(C)cc4)nc3n2)cc1 | 3.24 µM | 1.69 µM
67 | [O-][Cl+3]([O-])([O-])[O-].[O]=[Ru]=[O].c1ccc(-c2ccccn2)nc1.c1ccc(-c2ccccn2)nc1 | > 100 µM | > 100 µM
68 | C=C1C(=O)O[C@H]2[C@H]1CC/C(CNC(=O)c1cc3ccccc3[nH]1)=C\CC[C@@]1(C)O[C@@H]21 | 3.43 µM | 1.69 µM
69 | Cc1cc2c(cc1C)[n+](=O)c(C(=O)c1ccccc1)c(C(F)F)n2[O-] | > 100 µM | 32 µM
70 | COc1cc2c(cc1OC)C(Cl)C(c1ccc(F)cc1)=C2Cl (centres undefined) | 24.8 µM | –
71 | CCOC(=O)C1Sc2ccccc2N=C1C (centres undefined) | > 100 µM | –
